Reference: patent US12564553B2, “Suspension containing heterocyclidene acetamide derivative” (SENJU PHARMACEUTICAL CO., LTD., priority 2021, dated 2026)

Assay: Stability of Compound (1) in nonionic surfactant solution (content retention rate, liquid chromatography)
Assay type: physicochemical
Conditions: aqueous solution in glass ampoule stored at 25° C. for 1 month (1M)
Method: As used herein, the term “stability” refers to the degree to which the content of (E)-2-(7-trifluoromethylchroman-4-ylidene)-N-(7-hydroxy-5,6,7,8-tetrahydronaphthalen-1-yl)acetamide, or a pharmaceutically acceptable salt or solvate thereof, dissolved and/or suspended in an aqueous suspension is maintained without being altered by decomposition or the like after storage for a certain period of time. In addition, as used herein, the “stability” is evaluated by the content maintenance ratio, which is the ratio of the content of (E)-2-(7-trifluoromethylchroman-4-ylidene)-N-(7-hydroxy-5,6,7,8-tetrahydronaphthalen-1-yl)acetamide, or a pharmaceutically acceptable salt or solvate thereof, in the aqueous suspension agent stored for a certain period after preparation to the content of (E)-2-(7-trifluoromethylchroman-4-ylidene)-N-(7-hydroxy-5,6,7,8-tetrahydronaphthalen-1-yl)acetamide, or a pharmaceutically acceptable salt or solvate thereof, in the aqueous suspension agent immediately after preparation. Typically, this evaluation is determined by evaluating the content retention rate of (E)-2-(7-trifluoromethylchroman-4-ylidene)-N-(7-hydroxy-5,6,7,8-tetrahydronaphthalen-1-yl)acetamide, or a pharmaceutically acceptable salt or solvate thereof, dissolved in the aqueous suspension agent. […]

content retention rate (to display ratio %): 100%
SMILES: O=C(/C=C1\CCOc2cc(C(F)(F)F)ccc21)Nc1cccc2c1C[C@H](O)CC2 [Compound (1), (E)-2-(7-trifluoromethylchroman-4-ylidene)-N-((7R)-7-hydroxy-5,6,7,8-tetrahydronaphthalen-1-yl)acetamide]
